Measured values published in article PMC6952399, “Structures of lipoprotein signal peptidase II from Staphylococcus aureus complexed with antibiotics globomycin and myxovirescin” (Nature Communications, 2020).
Where “and” joins values, the source holds several entries; their conditions need not be identical. Equal values may be shown once.

Legend:
[1] = biological target: T1, LspMrs (lipoprotein signal peptidase II from methicillin-resistant Staphylococcus aureus) (Staphylococcus aureus, UniProt Q6GHN9); test: FRET lipopeptide peptidase assay, LspMrs; format: biochemical; settings: for IC50: IC50, FRET, 0.3 µM enzyme, 80 µM substrate, initial rates; for Rate (RFU/min): replicates 1 and 2
T1 construct: MGSS-hexahistidine-SSGR-TEV site (ENLYFQ) (N, cleaved yes); made in house; host or cells: E. coli C43 (DE3)
Description: FRET activity assays. A FRET based assay was developed using a labelled lipopeptide substrate (Supplementary Methods, Supplementary Fig. 3b) to directly monitor the protease activity of LspA. The optimised LspMrs assay buffer included 100 mM Tris/HCl pH 7.8, 150 mM NaCl and 0.09%(w/v) DDM. The corresponding optimized buffer for LspPae included 100 mM MES/NaOH pH 5.6, 150 mM NaCl and 0.05%(w/v) LMNG. All assays were performed at 37 °C.
Reaction mixtures were prepared by pipetting the FRET lipopeptide substrate (dissolved in DMSO) directly into assay buffer at a final concentration of 80 µM. Reaction mixtures were prepared by vortexing (Clifton, cyclone CM-1) for 2 s and incubated at 37 °C, 800 rpm for 10 to 30 min. Equal volumes of the reaction mixture were pipetted into 1.5 mL Eppendorf tubes and 0 to 150 µM globomycin or myxovirescin (in DMSO) added. For dose-response assays, the final DMSO concentration in all reactions was 10%(v/v). Reaction mixtures were pipetted into wells of a 96- (Thermo Scientific) or a 384-well plate (4titude®) and incubated for 10 min at 37 °C in a SpectraMax M3 or a SpectraMax M5e plate reader (Molecular devices) prior to starting the assay. Assays were initiated by adding enzyme to a final concentration in the range 10–300 nM. Total reaction mixture volume was 50 μL. Reactions were monitored by fluorescence (Ex/Em, 320 nm/420 nm) for 30 to 60 min at 37 °C. Initial rates were calculated from the fluorescence intensity versus time progress curves (Supplementary Figs. 5 and 6). Occasionally, lag periods in the progress curves were observed (Supplementary Discussion). In such cases, initial rates were calculated after the lag period had passed (typically 1–5 min) and a steady rate had been established. Dose-response plots to determine IC50 values were generated using Prism® 5 software from GraphPad.
It was possible to convert units of fluorescence change into moles of substrate consumed or products formed because pure products of LspA action on Abz-LALAGC*SS-nY-NH2 had been synthesized and were available. These were used to create a standard curve of fluorescence versus moles of the two products in equimolar amounts and to calculate specific activity values.

[2] = biological target: T2, LspPae (lipoprotein signal peptidase II from Pseudomonas aeruginosa) (Pseudomonas aeruginosa, UniProt Q9HVM5); test: Coupled gel-shift peptidase assay with proICP substrate, LspPae WT; format: biochemical
T2 construct: made in house
T2 sequence (Q9HVM5 1-169): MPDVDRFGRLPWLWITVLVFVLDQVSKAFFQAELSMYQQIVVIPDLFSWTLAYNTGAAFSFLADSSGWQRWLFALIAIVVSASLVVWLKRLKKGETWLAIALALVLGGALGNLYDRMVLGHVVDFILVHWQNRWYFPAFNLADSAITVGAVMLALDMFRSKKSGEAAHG
Source text: The peptidase activity of LspMrs and P. aeruginosa LspA (LspPae) was quantified in a coupled gel-shift assay developed previously for LspPae[5]. The P. aeruginosa lipoprotein pre-proICP and the first two enzymes in the bacterial lipoprotein processing pathway Lgt and LspA were expressed and purified, as described. For FRET assays LspMrs was expressed and purified as described above and LspPae was expressed and purified as described in a published protocol.
Gel-shift activity assay. For time course assays, reactions were set up containing 12 µM pre-proICP, 250 µM DOPG (Avanti Polar Lipids, Inc.) and 1.2 µM Lgt in Buffer E (50 mM Tris/HCl pH 7.5, 150 mM NaCl, 1 mM DTT, 0.02%(w/v) LMNG). The assay mixtures were incubated at 37 °C and 200 rpm for 60 min to allow Lgt catalysed conversion of pre-proICP to the LspA substrate proICP. The LspA reaction was initiated by adding 0.5 µM LspA directly to the assay mixture. At timed intervals, 20 µL samples were removed and the reaction was stopped by adding 10 µL of 4x SDS loading buffer (62.5 mM Tris/HCl pH 6.8, 2.5%(w/v) SDS, 0.002%(w/v) bromophenol blue, 0.5 M β-mercaptoethanol, 10%(v/v) glycerol). To compare the activity of wild-type and mutant LspMrs, assays were allowed to proceed for 30 min before being stopped with SDS loading buffer. […] The reactions were initiated by adding LspA and allowed to proceed for 30 min. After the reaction was stopped with SDS buffer, 10 μL aliquots were loaded on precast Mini-PROTEAN® TGX^TM gels (Bio-Rad) and run with Tris/glycine buffer (25 mM Tris/HCl pH 8.0, 250 mM glycine, 0.1%(w/v) SDS). The gels were stained using InstantBlue™ (Expedeon) Coomassie based stain and were imaged using a Bio-Rad Gel-Doc imager (Supplementary Fig. 4). Band intensities of ICP were quantified using Image Lab. Dose-response plots to determine IC50 values were generated using Prism® 5 software from GraphPad.

How did the IC50 [1] turn out when `CCCCCC[C@H]1OC(=O)CNC(=O)[C@H]([C@H](C)O)NC(=O)[C@H](CO)NC(=O)[C@H]([C@H](C)CC)NC(=O)[C@H](CC(C)C)N(C)C(=O)[C@@H]1C` [globomycin] was run?
Its IC50 is 170 nM and 167 nM.

And the “Rate (RFU/min)” value ([1]; LspMrs + Globomycin, log [globomycin] (µM) 0.00)?
Its value is 0 RFU/min.

What about the “Rate (RFU/min)” value ([1]; LspMrs + Globomycin, log [globomycin] (µM) -0.30) of the same compound?
Its value is 0 RFU/min.

What about the “Rate (RFU/min)” value ([1]; LspMrs + Globomycin, log [globomycin] (µM) -0.52) of the same compound?
The value was 0.33 RFU/min and 0.27 RFU/min.

What about the “Rate (RFU/min)” value ([1]; LspMrs + Globomycin, log [globomycin] (µM) -0.70) of the same compound?
Its value is 0.64 RFU/min and 0.57 RFU/min.

What about the “Rate (RFU/min)” value ([1]; LspMrs + Globomycin, log [globomycin] (µM) -1.00) of the same compound?
The value was 1.06 RFU/min and 1.05 RFU/min.

And the “Rate (RFU/min)” value ([1]; LspMrs + Globomycin, log [globomycin] (µM) -2.00)?
The value was 1.47 RFU/min and 1.55 RFU/min.

What about the “Rate (RFU/min)” value ([1]; LspMrs + Globomycin, log [globomycin] (µM) -3.00) of the same compound?
The value was 1.53 RFU/min and 1.49 RFU/min.

And the IC50 [2]?
Its IC50 is 640 ± 160 nM.

What about the remaining activity at 1000 µM ([2]; Log[Globomycin](M) -3, read-out: Normalized activity) of the same compound?
Its remaining activity at 1000 µM is 94.2%.

What about the remaining activity at 100 µM ([2]; Log[Globomycin](M) -4, read-out: Normalized activity) of the same compound?
Its remaining activity at 100 µM is 94%.

Which IC50 [1] does the source give for `CCCC1OC(=O)C(C)CC(C)CCCCC(=O)CCCC(CC)C=CC=C(COC)CCC(O)C(O)CC(O)CNC1=O` (stereo not drawn) [myxovirescin, myxovirescin A1] here?
Its IC50 is 151 nM.

What about the “Rate (RFU/min)” value ([1]; LspMrs + Myxovirescin, log [myxovirescin] (µM) 0.00) of the same compound?
The value was 0 RFU/min.

And the “Rate (RFU/min)” value ([1]; LspMrs + Myxovirescin, log [myxovirescin] (µM) -0.30)?
The value was 0 RFU/min.

What about the “Rate (RFU/min)” value ([1]; LspMrs + Myxovirescin, log [myxovirescin] (µM) -0.52) of the same compound?
Its value is 0 RFU/min and 0.13 RFU/min.

What about the “Rate (RFU/min)” value ([1]; LspMrs + Myxovirescin, log [myxovirescin] (µM) -0.70) of the same compound?
The value was 0.55 RFU/min and 0.58 RFU/min.

What about the “Rate (RFU/min)” value ([1]; LspMrs + Myxovirescin, log [myxovirescin] (µM) -1.00) of the same compound?
Its value is 1.04 RFU/min.

What about the “Rate (RFU/min)” value ([1]; LspMrs + Myxovirescin, log [myxovirescin] (µM) -2.00) of the same compound?
The value was 1.47 RFU/min and 1.55 RFU/min.

What about the “Rate (RFU/min)” value ([1]; LspMrs + Myxovirescin, log [myxovirescin] (µM) -3.00) of the same compound?
The value was 1.49 RFU/min and 1.52 RFU/min.

What about the IC50 [2] of the same compound?
Its IC50 is 1090 ± 340 nM.

What about the remaining activity at 50 µM ([2]; read-out: Normalized activity, Log[Myxovirescin](M) -4.30103) of the same compound?
The remaining activity at 50 µM was 95.7%.
